We go through eight substances from patent US7291337B2, “Peptide having an affinity for gp120” (Aspion Co., Ltd., priority 2000, dated 2007).

The target in one assay is gp120 (Human immunodeficiency virus type 1 group M subtype B, UniProt P03375). The following applies: peptide conjugated latex beads; for Agglutinin test, Colloidal gold conjugated gp120: protein contents 1 μg/ml; for Agglutinin test, gp120 protein: unlabelled gp120, contents 1 μg/ml.
Assay [1] addresses HIV-1-gp120 (Immuno Diagnosis Co.), horseradish peroxidase labeled and enzyme unlabeled (HIV-1). The assay is described as follows: Scatchard plot; HRP-labeled and unlabeled gp120 added to peptide carrier.
Assay [2] deals with HIV-1 kk-1 (virus; gp120 on it) (HIV-1 kk-1). The assay is described as follows: column absorption of KK-1 virus in human serum; p24 antigen ELISA.
Assay [3] has the same target. As to the kind of experiment: column absorption of KK-1 virus in human serum; p24 antigen ELISA of lysed bound virus (starting material 2,350). In general terms: An ELISA detects its analyte on a solid surface through an enzyme-linked reagent.
The subject of assay [4] is serum of hepatitis C or B patients, laboratory strain and freshly isolated strain, virus lysate conjugated colloidal gold. As to the kind of experiment: Specificity test with peptide conjugated latex beads against viruses (Table 17). The assay is classed as binding. The text has this: The virus that was in use in this enforcement example was serum, laboratory strain and a freshly isolated strain that was gathered from patients of hepatitis C or B at final stage. Then, we used virus lysate that conjugated colloidal gold as previously.

Assay [5] has as its system HTLV-IIIB (laboratory strain). As to the kind of experiment: Investigation of neutralizing activity of HIV-1 (CPE in MT-4 cells), HTLV-IIIB. It is filed as cell-based. The note with it: content to inhibit infection (CPE), 6 days, NE = no effect. The text has this: (§1) Then, we used AZT as a positive control.
Assay [6] concerns KK-1 (freshly isolated HIV). The assay is described as follows: Investigation of neutralizing activity of HIV-1 (CPE in MT-4 cells), KK-1. The following applies: content to inhibit infection (CPE), 6 days, NE = no effect. It is filed as cell-based.
Source text: as §1

[7] abbreviates: Sample/Virus No. 1: HIV-1 IIIB, 1.0 × 10^5 TCID50.
Setting [8] is: Sample/Virus No. 2: HIV-1 Lav 1, 1.0 × 10^5 TCID50.
Where [9] appears, read: Sample/Virus No. 3: HIV-1 kk-1, 1.0 × 10^4.5 TCID50.
[10] abbreviates: Sample/Virus No. 4: HIV-2 Lav2, 1.0 × 10^6 TCID50.
Setting [11] is: Sample/Virus No. 5: Serum of HCV patients, titer indistinct.
[12] abbreviates: Sample/Virus No. 6: Serum of HBV patients, titer indistinct.
[13] abbreviates: Sample/Virus No. 7: Hepatitis B surface antigen(HbsAg), 1.6 × 10^5 units.
[14] abbreviates: Sample/Virus No. 8: Valaricella Zoster valirus, 9.5 × 10^5 units.
Setting [15] is: Sample/Virus No. 9: Argubella Zoster valirus (VZV), 4.9 × 10^5 units.
Setting [16] is: Sample/Virus No. 10: HTLV-1 virul lysate, 1.1 × 10^5 units.
Where [17] appears, read: Sample/Virus No. 11: human cytomegalovirus (HCMV), 5.5 × 10^5 units.
[18] abbreviates: Sample/Virus No. 12: Epstein-Barr virus(EB virus), 9.9 × 10^5 units.

As usually defined, the Kd is the concentration at which binding is half-saturated. Lower therefore signals tighter binding.

For the substance Asp-Val-Lys-Ala-Gly [No. 1 in Table 1], on gp120, the “Agglutinin test, Colloidal gold conjugated gp120” value is “Presence” and the “Agglutinin test, gp120 protein” value was “Absence”.

In the case of Trp-Trp-Lys-Ala-Ala [No. 6 in Table 3], on gp120, the “Agglutinin test, Colloidal gold conjugated gp120” value is “Presence” and the “Agglutinin test, gp120 protein” value is listed as “Absence”.

The substance “No. 1 peptide of Table 1 (Asp-Val-Lys-Ala-Gly) bound to Sephadex 6MB” displayed an equilibrium dissociation constant (Kd) in assay [1] of 0.214 nM.

On to “No. 12 peptide of Table 3 (Tyr-Tyr-Lys-Ala-Ala) bound to cellulose type carrier”, for which, in assay [2], the percent of supplied virus absorbed was less than 10%. This substance also came in with a p24(S/CO), fraction of column absorption in assay [3] of 205 S/CO.

On to Table 1 No. 1 (DVKAG), for which the Presence of agglutinin result is listed as “+” in assay [4] (setting [7]); “+” in assay [4] (setting [8]); “+” in assay [4] (setting [9]); “−” in assay [4] (setting [10]); “−” in assay [4] (setting [11]); “−” in assay [4] (setting [12]). Further, the Presence of agglutinin entry in assay [4] (setting [13]), in assay [4] (setting [14]), in assay [4] (setting [15]), in assay [4] (setting [16]), in assay [4] (setting [17]) and in assay [4] (setting [18]) was “−” in each case.

For Table 3 No. 6 (WWKAA), the Presence of agglutinin entry was “+” in assay [4] (setting [7]); “+” in assay [4] (setting [8]); “+” in assay [4] (setting [9]); “−” in assay [4] (setting [10]); “−” in assay [4] (setting [11]); “−” in assay [4] (setting [12]). The Presence of agglutinin result in assay [4] (setting [13]), in assay [4] (setting [14]), in assay [4] (setting [15]), in assay [4] (setting [16]), in assay [4] (setting [17]) and in assay [4] (setting [18]) was “−” throughout.

“No. 12 peptide of Table 3 (Tyr-Tyr-Lys-Ala-Ala) bound to Sephadex 4B”: the Kd in assay [1] turned out to be 0.497 nM.

Regarding “Phe-Arg-Lys-Ala-Ala (FRKAA; printed: Phe-Arg-Lys-Ala-Ala) [No. 8 in Table 3]”, the “Anti-HIV neutralizing activity (μg/ml) HTLV-IIIB” value in assay [5] amounted to 125 µg/mL. In addition, the “Anti-HIV neutralizing activity (μg/ml) KK-1” value in assay [6] is 125 µg/mL.
